Reference: patent US10723726B2, “Solid forms of (Z)-4-(5-((3-benzyl-4-oxo-2-thioxothiazolidin-5-ylidene)methyl)furan-2-yl)benzoic acid” (GB006, INC., priority 2015, dated 2020)
“Also recorded” adds a separate entry of the source. Structures can show the parent of a compound that is named as a salt. Where two headings read alike, the source gives them in different places. Blank lines part the entries; values can stand above or below the compound they belong to.

Columns and labels:
in vivo = conditions: male, rat; for half-life: t1/2,ß
Description: (§1) In a second experiment, the dose solution was prepared in Tween-80 (0.02%) and 0.5% methyl cellulose in Milli-Q water. IP (2 mg/kg) and IV (1 mg/kg) dose solutions were prepared in a 5% DMSO and 95% PEG-200.
(§2) The PO (2 mg/kg) dose solution was prepared in Tween-80 (0.02%) and 0.5% methyl cellulose in Milli-Q water. The IV (1 mg/kg) dose solution was prepared in a solution of 5% DMSO and 95% PEG-200.
(§3) The routes of administration were namely PO (gavage), IP (bolus) and IV (bolus through tail vein). A total of four SD male rats were used aged between 5-6 weeks. The feeding regimen included 12 h fasting and the feed was provided 2 hrs after the dosage inoculation and water was provided ad libidum. The blood collection schedule for PO/IP was at 0.25, 0.5, 1, 2, 4, 8, 10 and 24 h, and for IV it was at 0.12, 0.25, 0.5, 1, 2, 4, 8 and 24 h. For PO dosage, tween-80 (0.02%) and 0.5% methyl cellulose prepared in milli-Q water were used as vehicles; for IP and IV dosage 5% DMSO and 95% PEG-200 were used as vehicles.
(§4) Stock solution (178 μg/mL) in methanol was further diluted using methanol: water (80:20, v/v) to obtain working solutions in the range of 10.4 to 20745 ng/mL.
(§5) 50 μL of sample was aliquoted in to pre-labeled vials. To it was added 200 μL of 10% tetrahydrofuran containing IS (100 ng/mL; tolbutamide) and mixed well, vortexed for 5 min followed by centrifugation for 5 min at 14000 rpm for at 4° C. Supernatant was separated and 5 μL of same was injected on LC-MS/MS.
(§6) Data Analysis: Individual concentration-time data were analyzed using WinNonlin (Version 5.3) by non-compartmental analysis (NCA) method.
(§7) The routes of administration were namely PO (gavage) and IV (bolus through tail vein). A total of four SD male rats were used aged between 5-6 weeks. The feeding regimen included 12 h fasting and the feed was provided 2 hrs after the dosage inoculation and water was provided ad libitum. The blood collection schedule for PO was at 0.25, 0.5, 1, 2, 4, 8, 10 and 24 h, and for IV it was at 0.12, 0.25, 0.5, 1, 2, 4, 8 and 24 h. For PO dosage, tween-80 (0.02%) and 0.5% methyl cellulose prepared in milli-Q water were used as vehicles; for IV dosage 10% DMSO and 90% PEG-200 were used as vehicles.

[1] = in vivo
Description: as §1, §2, §3, §4, §5, §6, §7

[2] = tested on: murine melanoma B16-F10 tumors; assay: Murine melanoma B16F10 allograft efficacy (Example 20); type: in vivo, C57BL/6 mice
[3] = Aqueous solubility by equilibration, HPLC analysis; type: physicochemical; conditions: for Aq solub: water, ambient temperature, slurried 4-5 days, corrected for weight of counter-ion
Description: An aliquot of the UHQ water test solvent (1 mL) was added to an accurately weighed sample of the LA1 salts and agitated at ambient temperature for a period of 4 days. A sample was withdrawn, filtered through a […], and analyzed by HPLC. HPLC was used to determine aqueous equilibrium solubility at ambient temperature. […] Samples were slurried in water for 4-5 days before analysis.

[4] = Solubility estimation by aliquot addition and temperature cycling; type: physicochemical; conditions: for solubility: thermodynamic from solid, 20° C., read-out: Approx. solubility
Description: Aliquots of the test solvent were added to an accurately weighed sample (−10 mg) of LA1 at ambient temperature. The aliquot volumes were typically 200-1000 μL. Complete dissolution of the test material was determined by visual inspection. The solubility was estimated from these experiments based on the total solvent used to provide complete dissolution.
First, the samples were heated from 20° C. to within 3° C. of solvent boiling point (or 100° C., whichever was lower) at 0.5° C./minute; then cooled to 20° C. at 0.2° C./minute while stirring at 800 rpm.
From the infrared (IR) transmission data of the sample vials, dissolution and precipitation events were recorded as the point of complete transmission of IR and the onset of turbidity by IR respectively. Selected samples were also agitated on an orbital shaker at 50° C. and visually observed for dissolution.

[5] = Rat PK of LA1 free acid, first experiment (2-hydroxypropyl-β-cyclodextrin dose solution); type: in vivo, Sprague Dawley (SD) rats; conditions: 30% 2-hydroxypropyl-β-cyclodextrin in PBS
Description: In a first experiment, the dose solution was prepared in 30% w:v 2-hydroxypropyl-β-cyclodextrin prepared in PBS at 2 mg/kg. Improved bioavailability was needed.

leukocytes = conditions: mice; cited from earlier work
[6] = male, Sprague Dawley, rat, ip, 2 mg/kg
[7] = male, Sprague-Dawley, rat, ip, 2 mg/kg
[8] = male, Sprague-Dawley, rat, iv, 1 mg/kg
[9] = male, Sprague-Dawley, rat, po, 2 mg/kg
[10] = after slurrying in water 4-5 days
[11] = Sprague Dawley, in vivo, PO 2 mg/kg

- bioavailability (in vivo; Sprague-Dawley, F (absolute oral bioavailability)): 41%
- MRT (in vivo; Sprague-Dawley, po, 2 mg/kg, MRT): 1.81 h
- half-life (in vivo; Sprague-Dawley, po, 2 mg/kg): 1.57 h
- Tmax (in vivo; Sprague-Dawley, po, 2 mg/kg): 0.5 h
- Rat Cl ([1]; male, Sprague Dawley, iv, 1 mg/kg): 17.6 mL/min/kg
- Vss ([1]; male, Sprague Dawley, rat): 0.73 L/kg
- MRT [1, 6]: 1.02 h
- Rat Cl ([1]; male, Sprague-Dawley): 18 mL/min/kg
- Rat Cl ([1]; male, Sprague-Dawley, iv, 1 mg/kg): 17.6 mL/min/kg
- % F (absolute IP bioavailability) ([1]; male, Sprague-Dawley, rat): 84%
- Vss ([1]; male, Sprague-Dawley, rat): 0.73 L/kg
- AUC0-t [1, 7]: 1657 ng·h/mL
- AUC0-∞ [1, 7]: 1666 ng·h/mL
- MRT [1, 7]: 1.02 h
- Tlast [1, 7]: 10.0 h
- Tmax [1, 7]: 0.25 h
- AUC0-t [1, 8]: 985 ng·h/mL
- AUC0-∞ [1, 8]: 993 ng·h/mL
- C0 [1, 8]: 1856 ng/mL
- MRT [1, 8]: 0.72 h
- Tlast [1, 8]: 7.00 h
- Vd [1, 8]: 1.78 L/kg
- AUC0-t [1, 9]: 808 ng·h/mL
- AUC0-∞ [1, 9]: 814 ng·h/mL
- Tlast [1, 9]: 10.0 h
- Appearance [3, 10]: Darker red color
- Soln pH [3, 10]: 8
- HPLC purity (%) ([3]; after slurrying in water 4-5 days (chemical stability)): 75.51%
- Aq solub ([3]; listed as choline): 7.052 mg/mL
- Aq solub ([3]; listed as choline salt): 7.1 mg/mL
SMILES: O=C(O)c1ccc(-c2ccc(/C=C3\SC(=S)N(Cc4ccccc4)C3=O)o2)cc1 [LA1 choline salt]
- growth inhibition of B16-F10 tumors as compared to vehicle control ([2]; 3-100 mg/kg orally): 43-68%
- tumor volume ([2]; 3-100 mg/kg, FIG. 24): decreased tumor volume in a dose dependent manner

- dissolution upon heating ([4]; DMF, 73° C.): 10 mg/mL
- solubility ([4]; aqueous with cosolvent or surfactant or cyclodextrin, DMF:water (1:1)): < 10000 µg/mL
- solubility ([4]; organic solvent or mixture, DMF:MeOH (1:1)): < 10000 µg/mL
- solubility ([4]; organic solvent or mixture, DMF:THF (1:1)): < 7000 µg/mL
- solubility ([4]; organic solvent or mixture, MeOH:ACN:dioxane (1:1:1)): < 10000 µg/mL
- solubility ([4]; organic solvent or mixture, MeOH:acetone (1:1)): < 10000 µg/mL
- solubility ([4]; organic solvent or mixture, THF:Acetone (1:1)): < 10000 µg/mL
- solubility ([4]; organic solvent or mixture, THF:MeOH (1:1)): < 10000 µg/mL
- solubility ([4]; organic solvent or mixture, THF): < 10000 µg/mL
- solubility ([4]; organic solvent or mixture, acetone): < 10000 µg/mL
- solubility ([4]; organic solvent or mixture, acetonitrile): < 10000 µg/mL
- solubility ([4]; organic solvent or mixture, anisole): < 10000 µg/mL
- solubility ([4]; organic solvent or mixture, dichloromethane): < 10000 µg/mL
- solubility ([4]; organic solvent or mixture, dimethylformamide): < 10000 µg/mL
- solubility ([4]; organic solvent or mixture, hexafluoroisopropanol): < 10000 µg/mL
- solubility ([4]; organic solvent or mixture, methanol): < 10000 µg/mL
- clearance (in vivo; Sprague Dawley, iv, 1 mg/kg, Rat Cl (ml/min/kg)): 19.7 mL/min/kg
- bioavailability (in vivo; Sprague-Dawley, % F (absolute IP bioavailability)): 82%
- clearance (in vivo; Sprague-Dawley, Rat Cl (ml/min/kg)): 20 mL/min/kg
- bioavailability (in vivo; Sprague-Dawley, ip, 2 mg/kg, % F (absolute IP bioavailability)): 81.6%
- AUC (in vivo; Sprague-Dawley, ip, 2 mg/kg, AUC in mM*hr): 3.5 µM·h
- Tmax (in vivo; Sprague-Dawley, ip, 2 mg/kg): 0.25 h
- AUC0-t (in vivo; Sprague-Dawley, iv, 1 mg/kg, AUC0-t): 903 ng·h/mL
- AUC(0-inf) (in vivo; Sprague-Dawley, iv, 1 mg/kg, AUC0-∞): 918 ng·h/mL
- clearance (in vivo; Sprague-Dawley, iv, 1 mg/kg, CL): 19.7 mL/min/kg
- Cmax (in vivo; Sprague-Dawley, iv, 1 mg/kg, Cmax): 952 ng/mL
- clearance (in vivo; Sprague-Dawley, iv, 1 mg/kg, Rat Cl (ml/min/kg)): 19.7 mL/min/kg
- Vd (in vivo; Sprague-Dawley, iv, 1 mg/kg, Vd): 2.39 L/kg
- half-life (in vivo; Sprague-Dawley, iv, 1 mg/kg): 1.16 h
- Rat F % ([1]; po, 2 mg/kg): Exposure too low
- Vss ([1]; male, Sprague Dawley, rat): 4.19 L/kg
- MRT [1, 6]: 3.44 h
- Vss ([1]; male, Sprague-Dawley, rat): 4.19 L/kg
- AUC0-t [1, 7]: 1481 ng·h/mL
- AUC0-∞ [1, 7]: 1499 ng·h/mL
- MRT [1, 7]: 3.44 h
- Tlast [1, 7]: 20.5 h
- C0 [1, 8]: 1317 ng/mL
- MRT [1, 8]: 3.38 h
- Tlast [1, 8]: 20.0 h
- MRT (hr) ([1]; rat, po, 2 mg/kg): Exposure too low
- Rat Cl ([5]; PO - 2 mg/kg table): 11.1 mL/min/kg
- Vss ([5]; PO - 2 mg/kg table): 0.59 L
- AUC [5, 11]: 8.7 µM·h
- MRT [5, 11]: 3.49 h
- half-life [5, 11]: 2.03 h
- bioavailability ([5]; Sprague Dawley, in vivo, PO 2 mg/kg, read-out: Rat F %): 15.1%
SMILES: O=C(O)c1ccc(-c2ccc(/C=C3\SC(=S)N(Cc4ccccc4)C3=O)o2)cc1 [LA1, (Z)-4-(5-((3-benzyl-4-oxo-2-thioxothiazolidin-5-ylidene)methyl)furan-2-yl)benzoic acid]
- solubility by aliquot addition, overall ([4]; all solvents and solvent mixtures tested): insoluble in all solvents tested; also recorded: poor solubility in all solvents tested
- recruitment of leukocytes during acute peritonitis (leukocytes): reduce recruitment of leukocytes
